Values after ≈ are worked out from the molar mass of the structure shown. Read-outs that look alike come from different tables or passages of the source. Where a SMILES comes first, the peptide text is derived from it.
Key:
[1] = test system: E. coli BW25113 ΔmdtM; assay type: cell-based, Escherichia coli; details: Mueller–Hinton broth, 24 h, 37 °C, median
Procedure: (§1) The reduction of resazurin to resorufin was measured.

[2] = test system: E. coli BW25113 ΔompF; assay type: cell-based, Escherichia coli; details: Mueller–Hinton broth, 24 h, 37 °C, median
Procedure: as §1

[3] = test system: E. coli MDR CI 1057
Procedure: (§2) Bacterial test cultures were grown in the Mueller-Hinton broth (MH; Sigma, St. Louis, MO, USA) at 37 °C to mid-log phase and then diluted with the 2× MH medium supplemented with 1.8% NaCl or without salt so that to reach a final cell concentration of 10^6 CFU/mL. 50 µL of the obtained bacterial suspension were added to aliquots of 50 µL of the peptide solutions serially diluted with sterilized 0.1% bovine serum albumin (BSA) in 96-well flat-bottom polystyrene microplates (Eppendorf #0030730011, Hamburg, Germany). […] To verify MIC values, the respiratory activity of the bacteria was determined. Briefly, 20 µL of 0.1 mg/mL resazurin (a redox indicator; Sigma, St. Louis, MO, USA) was added to the wells after 24 h of incubation, and the plate was incubated for an additional two hours. The reduction of resazurin to resorufin was measured. […] The results were expressed as the median values determined based on at least three independent experiments performed in triplicate.
(§3) Resistance induction experiments were performed using the previously described method. Briefly, on day one, the overnight culture of wild-type bacteria was diluted with the 2× MH broth supplemented with 1.8% NaCl to reach a final cell concentration of 10^6 CFU/mL. 50 µL of the obtained bacterial suspension were added to aliquots of 50 µL of the peptide solutions serially diluted with the sterilized 0.1% BSA in 96-well flat-bottom polystyrene microplates. After incubation for 20 ± 2 h at 37 °C and 950 rpm, MICs were determined as described above. For each subsequent daily transfer, 2–4 μL of the inoculum taken from the first well containing a sub-inhibitory drug concentration were diluted with 2 mL of the fresh 2× MH broth supplemented with 1.8% NaCl. […] 14 repeated passages in the presence of antimicrobial agents were made for each bacterial strain during the experiment. Bacteria that grew at the highest concentration of AMPs on the final day were passaged a further 3 times on drug-free agar plates before determining the final MIC value.

[4] = test system: VicBac[1–22]-resistant E. coli MDR 1057 strain; details: Mueller-Hinton broth supplemented with 0.9% NaCl; strain selected 14 days with VicBac[1-22]; cross-resistance
Procedure: as §2, §3

[5] = test system: E. coli CI 214; experiment: Antimicrobial assay (MIC); assay type: cell-based, Escherichia coli; details: Mueller-Hinton broth supplemented with 0.9% NaCl
Procedure: as §1

[6] = test system: E. coli ML-35p; experiment: Antimicrobial assay (MIC); assay type: cell-based, Escherichia coli; details: Mueller-Hinton broth supplemented with 0.9% NaCl
Procedure: as §1

[7] = test system: P. aeruginosa ATCC 27853; experiment: Antimicrobial assay (MIC); assay type: cell-based, Pseudomonas aeruginosa; details: Mueller-Hinton broth supplemented with 0.9% NaCl
Procedure: as §1

[8] = test system: P. aeruginosa PAO1; experiment: Antimicrobial assay (MIC); assay type: cell-based, Pseudomonas aeruginosa; details: Mueller-Hinton broth supplemented with 0.9% NaCl
Procedure: as §1

[9] = test system: PBMC; experiment: Cytokine response (multiplex xMAP immunoassay); assay type: cell-based, human; details: 2 µM peptide, 24 h
Procedure: (§4) Acute monocytic leukemia THP-1 line (ATCC TIB-202) was cultured in complete RPMI 1640 medium (Invitrogen, Waltham, MA, USA) containing 10% FBS, 1× antibiotic-antimycotic solution (Invitrogen, Waltham, MA, USA), and 0.05 mM β-mercaptoethanol, in the CO2-incubator (5% CO2, 37 °C). THP-1 cells were differentiated into proinflammatory macrophages (MΦ1) according to the previously reported protocol. Primary peripheral blood mononuclear cells (PBMC) collected from a healthy donor were purchased from American Type Culture Collection (ATCC PCS-800-011), thawed, and seeded into a 96-well plate one day prior to the experiment at a density of 2 × 10^5 cells/well. Two different cell subpopulations (monocytes and T-/B-/NK-lymphocytes) were isolated from PBMC based on their adherence ability. Macrophages MΦ1 were washed out and seeded into 96-well plates at a density of 10^5 cells/well one day prior to the experiment. The next day medium in each well was replaced by a fresh complete RPMI 1640 medium with or without 2 μM of cathelicidin (VicBac[1–22] or VicBac[1–39]). Cell cultures were kept in a CO2 incubator (5% CO2, 37 °C) for 24 h. Culture supernatants were collected 24 h later and stored at −70 °C degrees less than one week prior to the assessment of analytes. 27 analytes were measured at a protein level by multiplex xMAP technology using the MILLIPLEX MAP Human Cytokine/Chemokine Magnetic Bead Immunology Panel kit (HCYTOMAG-60K-27, Merck, Darmstadt, Germany): eotaxin-1/CCL11, TGFα, GM-CSF, IFNα2, IFNγ, IL-10, IL-12p40, IL-12p70, IL-13, IL-15, sCD40L, IL-17A, IL-1RA, IL-1α, IL-9, IL-1β, IL-2, IL-3, IL-4, IL-5, IL-6, IL-7, IL-8/CXCL8, IP-10/CXCL10, RANTES/CCL5, TNFα, TNFβ. Multiplex-based assay read-out was performed using the MAGPIX system (Merck) with the xPONENT 4.2 software (Merck, Darmstadt, Germany) in accordance with the manufacturer’s instruction with overnight incubation of the samples with primary antibodies. The final analysis was carried out with the MILLIPLEX Analyst v5.1 software (Merck). Measurements were performed twice for each sample. The release of the analytes in control and experimental samples were compared by unpaired two-sample t-test using GraphPad Prism v.8.0.1. The p values ≤ 0.05 were considered significant.

[10] = test system: T-/B-/NK-lymphocytes; experiment: Cytokine response (multiplex xMAP immunoassay); assay type: cell-based, human; details: 2 µM peptide, 24 h
Procedure: as §4

[11] = test system: primary monocytes; experiment: Cytokine response (multiplex xMAP immunoassay); assay type: cell-based, human; details: 2 µM peptide, 24 h
Procedure: as §4

[12] = test system: proinflammatory macrophages (MΦ1) from THP-1; experiment: Cytokine response (multiplex xMAP immunoassay); assay type: cell-based, human; details: 2 µM peptide, 24 h
Procedure: as §4

[13] = test system: panel of reference bacterial pathogens and antibiotic-resistant clinical isolates; details: Mueller–Hinton broth supplemented with 0.9% NaCl

CC[C@H](C)[C@H](NC(=O)[C@H](CCCNC(=N)N)NC(=O)[C@@H](N)CCCNC(=N)N)C(=O)N[C@@H](CCCNC(=N)N)C(=O)N[C@@H](CCCNC(=N)N)C(=O)N1CCC[C@H]1C(=O)N[C@@H](CCCNC(=N)N)C(=O)N[C@@H](CC(C)C)C(=O)N1CCC[C@H]1C(=O)N[C@@H](CCCNC(=N)N)C(=O)N1CCC[C@H]1C(=O)N[C@@H](CCCNC(=N)N)C(=O)N[C@H](C(=O)N1CCC[C@H]1C(=O)N[C@@H](CCCNC(=N)N)C(=O)N1CCC[C@H]1C(=O)N[C@@H](CCCNC(=N)N)C(=O)N[C@H](C(=O)N1CCC[C@H]1C(=O)N1CCC[C@H]1C(=O)N[C@@H](CCCNC(=N)N)C(=O)N[C@H](C(=O)N1CCC[C@H]1C(=O)N[C@@H](CCCNC(=N)N)C(=O)N1CCC[C@H]1C(=O)N[C@H](C(=O)N[C@@H](CC(C)C)C(=O)N1CCC[C@H]1C(=O)N1CCC[C@H]1C(=O)N1CCC[C@H]1C(=O)N[C@@H](CCCNC(=N)N)C(=O)N[C@H](C(=O)N1CCC[C@H]1C(=O)N[C@@H](Cc1ccccc1)C(=O)N1CCC[C@H]1C(=O)N[C@@H](CCCNC(=N)N)C(=O)N[C@@H](Cc1ccccc1)C(=O)N1CCC[C@H]1C(=O)N[C@@H](CCCNC(=N)N)C(N)=O)C(C)C)C(C)C)[C@@H](C)CC)[C@@H](C)CC)C(C)C [VicBac[1-39]] (H-RRIRRPRLPRPRVPRPRIPPRIPRPVLPPPRVPFPRFPR-NH2; N-terminus assumed)
Minimum inhibitory concentration, E. coli strain ΔmdtM ([1]; 0.9% NaCl: +): 1 µM (≈ 4.82 µg/mL) | Minimum inhibitory concentration, E. coli strain ΔmdtM ([1]; 0.9% NaCl: −): 2 µM (≈ 9.64 µg/mL) | Minimum inhibitory concentration, E. coli strain ΔompF ([2]; 0.9% NaCl: +): 1 µM (≈ 4.82 µg/mL) | Minimum inhibitory concentration, E. coli strain ΔompF ([2]; 0.9% NaCl: −): 1 µM (≈ 4.82 µg/mL) | MIC, E. coli MDR CI 1057 ([3]; Mueller-Hinton broth supplemented with 0.9% NaCl (Figure 3A)): 1 µM (≈ 4.82 µg/mL) | Minimum inhibitory concentration E.coli MDR 1057 14 days w/o AMP ([3]; Mueller-Hinton broth supplemented with 0.9% NaCl, after 14 passages without antimicrobial agents): 1 µM (≈ 4.82 µg/mL) | Minimum inhibitory concentration E.coli MDR 1057 0 days ([3]; Mueller-Hinton broth supplemented with 0.9% NaCl, before passages): 1 µM (≈ 4.82 µg/mL) | Minimum inhibitory concentration E.coli MDR 1057 14 days with VicBac [1-22] [4]: 2 µM | MIC, E. coli CI 214 [5]: 8 µM (≈ 38.5 µg/mL) | MIC, E. coli ML-35p [6]: 0.5 µM (≈ 2.41 µg/mL) | MIC, P. aeruginosa ATCC 27853 [7]: 4 µM (≈ 19.3 µg/mL) | MIC, P. aeruginosa PAO1 [8]: 8 µM (≈ 38.5 µg/mL) | IL-1RA on PBMC ([9]; control 95.52 pg/mL): 18.79 pg/mL | Production of RANTES/CCL5 on PBMC ([9]; control 286.63 pg/mL): 54.72 pg/mL | CXCL10/IP-10 production in the T/B/NK culture [10]: elevated | Production of TNFα by monocytes ([11]; control 18.47 pg/mL, two biological replications): 11.41 pg/mL | IL-1RA on primary monocytes ([11]; control 163.77 pg/mL): 37.82 pg/mL | Production of RANTES/CCL5 on primary monocytes ([11]; control 284.28 pg/mL): 71.5 pg/mL | TNFα production by macrophages ([12]; control 12.94 pg/mL, significance level quite low): 28.68 pg/mL | IL-1RA on pro-inflammatory macrophages ([12]; control 25.21 pg/mL): 9.47 pg/mL | MIC values, in most cases, against panel of reference pathogens and clinical isolates [13]: 0.25 to 8 µM

From article PMC9146984, “A Novel Proline-Rich Cathelicidin from the Alpaca Vicugna pacos with Potency to Combat Antibiotic-Resistant Bacteria: Mechanism of Action and the Functional Role of the C-Terminal Region” (Membranes, 2022)
